The source of these data is PubChem BioAssay AID226 (DTP/NCI, 2004).

The assay relates to B6C3F1 mice, intracerebral ependymoblastoma, median survival T/C. In words: NCI In Vivo Anticancer Drug Screen. Data for tumor model Ependymoblastoma (intracerebral) in B6C3F1 mice. The settings on record: endpoint: median survival time, higher = longer survival. On the procedure:
The antitumor activity of compounds was measured in mice bearing transplantable tumors. Survival or tumor size were measured and the results are expressed as the measurement made in the treated group (T) divided by the measurement made in the vehicle treated control group (C). The tumor model used in this assay is Ependymoblastoma (intracerebral) in B6C3F1 mice

[1] abbreviates: dose: 0.5 mg/kg/injection, schedule: Q01DX005 (ip), vehicle: saline.
Where [2] appears, read: dose: 1.0 mg/kg/injection, schedule: Q01DX005 (ip), vehicle: saline.
The mark [3] stands for this setting: dose: 2.0 mg/kg/injection, schedule: Q01DX005 (ip), vehicle: saline.
[4] abbreviates: dose: 128.0 mg/kg/injection, schedule: Q01DX005 (ip), vehicle: saline with Tween-80.

SMILES strings stand for the structures. Where “and” joins values, the source holds several entries; their conditions need not be identical. Equal values may be shown once. Toxic doses and inconclusive results are not listed.

For `COC1OC(CO)C(O)C(NC(=O)N(C)N=O)C1O` (stereo not given), the T/C was 101 % of control under setting [1]; 100 % of control (dose: 1.0 mg/kg/injection, schedule: Q01DX005 (ip), vehicle: saline + alcohol); 103 % of control under setting [2]; 113 % of control (dose: 1.0 mg/kg/injection, schedule: Q## X004 (ip), vehicle: saline + alcohol); 116 % of control (dose: 1.0 mg/kg/injection, schedule: Q## X006 (ip), vehicle: saline + alcohol); 109 % of control (dose: 2.0 mg/kg/injection, schedule: Q01DX005 (ip), vehicle: saline + alcohol). The T/C is, setting by setting: under setting [3], 119 % of control; (dose: 2.0 mg/kg/injection, schedule: Q## X004 (ip), vehicle: saline + alcohol) 115 % of control; (dose: 2.0 mg/kg/injection, schedule: Q#A X002 (ip), vehicle: saline + alcohol) 107 % of control; (dose: 4.0 mg/kg/injection, schedule: Q01DX001 (ip), vehicle: saline + alcohol) 94 % of control and 100 % of control and 110 % of control; (dose: 4.0 mg/kg/injection, schedule: Q01DX005 (ip), vehicle: saline + alcohol) 107 % of control; (dose: 4.0 mg/kg/injection, schedule: Q01DX005 (ip), vehicle: saline) 108 % of control. For the same molecule, the T/C is 115 % of control (dose: 4.0 mg/kg/injection, schedule: Q01DX005 (oral), vehicle: saline + alcohol); 118 % of control (dose: 4.0 mg/kg/injection, schedule: Q## X004 (ip), vehicle: saline + alcohol); 113 % of control (dose: 4.0 mg/kg/injection, schedule: Q## X006 (ip), vehicle: saline + alcohol); 97 % of control (dose: 4.0 mg/kg/injection, schedule: Q#A X002 (ip), vehicle: saline + alcohol); 97 % of control and 106 % of control and 113 % of control (dose: 8.0 mg/kg/injection, schedule: Q01DX001 (ip), vehicle: saline + alcohol); 103 % of control (dose: 8.0 mg/kg/injection, schedule: Q01DX005 (ip), vehicle: saline). Moreover, the T/C runs as follows: (dose: 8.0 mg/kg/injection, schedule: Q01DX005 (oral), vehicle: saline + alcohol) 113 % of control; (dose: 8.0 mg/kg/injection, schedule: Q## X004 (ip), vehicle: saline + alcohol) 119 % of control; (dose: 8.0 mg/kg/injection, schedule: Q## X006 (ip), vehicle: saline + alcohol) 118 % of control; (dose: 8.0 mg/kg/injection, schedule: Q#A X002 (ip), vehicle: saline + alcohol) 95 % of control; (dose: 16.0 mg/kg/injection, schedule: Q01DX001 (ip), vehicle: saline + alcohol) 91 % of control and 112 % of control and 117 % of control; (dose: 16.0 mg/kg/injection, schedule: Q01DX001 (oral), vehicle: saline + alcohol) 95 % of control and 108 % of control and 113 % of control. Also, the T/C (dose: 16.0 mg/kg/injection, schedule: Q01DX005 (ip), vehicle: saline + alcohol) is 121 % of control; the T/C (dose: 16.0 mg/kg/injection, schedule: Q01DX005 (oral), vehicle: saline + alcohol) was 101 % of control; the T/C (dose: 16.0 mg/kg/injection, schedule: Q#A X002 (ip), vehicle: saline + alcohol) is 109 % of control; the T/C (dose: 32.0 mg/kg/injection, schedule: Q01DX001 (ip), vehicle: saline + alcohol) is 100 % of control and 103 % of control and 108 % of control; the T/C (dose: 32.0 mg/kg/injection, schedule: Q01DX001 (oral), vehicle: saline + alcohol) was 91 % of control and 95 % of control and 117 % of control; the T/C (dose: 32.0 mg/kg/injection, schedule: Q01DX005 (oral), vehicle: saline + alcohol) was 101 % of control. The T/C is, setting by setting: (dose: 32.0 mg/kg/injection, schedule: Q#A X002 (ip), vehicle: saline + alcohol) 100 % of control; (dose: 64.0 mg/kg/injection, schedule: Q01DX001 (ip), vehicle: saline + alcohol) 103 % of control (2×) and 119 % of control; (dose: 64.0 mg/kg/injection, schedule: Q01DX001 (oral), vehicle: saline + alcohol) 106 % of control and 107 % of control and 109 % of control; (dose: 128.0 mg/kg/injection, schedule: Q01DX001 (oral), vehicle: saline + alcohol) 107 % of control and 112 % of control and 123 % of control; (dose: 256.0 mg/kg/injection, schedule: Q01DX001 (oral), vehicle: saline + alcohol) 107 % of control and 119 % of control.

For the molecule `CCCCN(C)N=Nc1ccc([N+](=O)[O-])cc1C(N)=O`, the T/C by setting is: (dose: 32.0 mg/kg/injection, schedule: Q01DX005 (ip), vehicle: saline with Tween-80) 114 % of control; under setting [4], 171 % of control; (dose: 256.0 mg/kg/injection, schedule: Q01DX005 (ip), vehicle: saline with Tween-80) 158 % of control.

Turning to `O=P(NC12CC3CC(CC(C3)C1)C2)(N1CC1)N1CC1`, the T/C was 108 % of control and 113 % of control (dose: 2.25 mg/kg/injection, schedule: Q01DX005 (ip), vehicle: Klucel (hydroxypropylcellulose) (HPC)); 111 % of control and 117 % of control (dose: 4.5 mg/kg/injection, schedule: Q01DX005 (ip), vehicle: Klucel (hydroxypropylcellulose) (HPC)); 123 % of control (dose: 9.0 mg/kg/injection, schedule: Q01DX005 (ip), vehicle: Klucel (hydroxypropylcellulose) (HPC)); 123 % of control (dose: 18.0 mg/kg/injection, schedule: Q01DX005 (ip), vehicle: Klucel (hydroxypropylcellulose) (HPC)).

In the case of `CSc1nc(N)nc2c1ncn2C1OC(CO)C(O)C1O` (stereo not given), the T/C runs as follows: (dose: 50.0 mg/kg/injection, schedule: Q01DX005 (ip), vehicle: suspension in saline) 108 % of control; (dose: 100.0 mg/kg/injection, schedule: Q01DX005 (ip), vehicle: suspension in saline) 109 % of control; (dose: 200.0 mg/kg/injection, schedule: Q01DX005 (ip), vehicle: suspension in saline) 100 % of control; (dose: 400.0 mg/kg/injection, schedule: Q01DX005 (ip), vehicle: suspension in saline) 96 % of control.

For the molecule `CCCCCN(C)/N=N/c1nc[nH]c1C(N)=O`, the T/C runs as follows: (dose: 64.0 mg/kg/injection, schedule: Q01DX005 (ip), vehicle: saline with Tween-80) 153 % of control; under setting [4], 160 % of control.

With `OCC1OC(n2cnc3c2NC=NC[C@H]3O)CC1O` (stereo not given in full), the T/C was 102 % of control (dose: 0.12 mg/kg/injection, schedule: Q#ADX018 (ip), vehicle: saline); 108 % of control and 113 % of control (dose: 0.25 mg/kg/injection, schedule: Q01DX005 (ip), vehicle: saline); 103 % of control (dose: 0.25 mg/kg/injection, schedule: Q#ADX018 (ip), vehicle: saline); 100 % of control and 103 % of control under setting [1]; 103 % of control and 116 % of control (dose: 0.5 mg/kg/injection, schedule: Q01DX009 (ip), vehicle: saline); 122 % of control (dose: 0.5 mg/kg/injection, schedule: Q#A X010 (ip), vehicle: saline). Also, the T/C (dose: 1.0 mg/kg/injection, schedule: Q01DX009 (ip), vehicle: saline) is 88 % of control and the T/C (dose: 2.0 mg/kg/injection, schedule: Q01DX009 (ip), vehicle: saline) is 91 % of control.

For `CCCCCCC1CC1C(=O)NCCCCCN=C(N)N` (stereo not given), the T/C runs as follows: (dose: 10.0 mg/kg/injection, schedule: Q01DX005 (ip), vehicle: Klucel (hydroxypropylcellulose) (HPC)) 96 % of control; (dose: 20.0 mg/kg/injection, schedule: Q01DX005 (ip), vehicle: Klucel (hydroxypropylcellulose) (HPC)) 102 % of control; (dose: 40.0 mg/kg/injection, schedule: Q01DX005 (ip), vehicle: Klucel (hydroxypropylcellulose) (HPC)) 101 % of control.

For `Nc1ccc(S(=O)(=O)c2ccc(N)cc2)cc1`, the T/C (dose: 25.0 mg/kg/injection, schedule: Q01DX005 (ip), vehicle: saline with Tween-80) is 122 % of control; the T/C (dose: 50.0 mg/kg/injection, schedule: Q01DX005 (ip), vehicle: saline with Tween-80) was 100 % of control; the T/C (dose: 100.0 mg/kg/injection, schedule: Q01DX005 (ip), vehicle: saline with Tween-80) was 108 % of control.

As to `N[C@@H](Cc1ccc(N(CCCl)CCCl)cc1)C(=O)O`, the T/C is, setting by setting: (dose: 0.5 mg/kg/injection, schedule: Q01DX001 (ip), vehicle: saline) 102 % of control; under setting [1], 93 % of control; (dose: 1.0 mg/kg/injection, schedule: Q01DX001 (ip), vehicle: saline) 98 % of control and 102 % of control and 105 % of control; under setting [2], 107 % of control; (dose: 2.0 mg/kg/injection, schedule: Q01DX001 (ip), vehicle: saline) 102 % of control and 104 % of control and 110 % of control; under setting [3], 109 % of control. Further, the T/C (dose: 4.0 mg/kg/injection, schedule: Q01DX001 (ip), vehicle: saline) is 96 % of control and 103 % of control and 110 % of control; the T/C (dose: 8.0 mg/kg/injection, schedule: Q01DX001 (ip), vehicle: saline) is 103 % of control and 113 % of control and 117 % of control.
